ChEMBL document CHEMBL3734751, “Discovery of novel, potent and low-toxicity angiotensin II receptor type 1 (AT1) blockers: Design, synthesis and biological evaluation of 6-substituted aminocarbonyl benzimidazoles with a chiral center” (Eur J Med Chem, 2015)
Substitutions are numbered along the chain they refer to. Calls of active or inactive are those of the source. No cut-off for these calls is given here.

Columns and labels:
[1] = test system: Mus musculus; experiment: Renal toxicity in Kunming mouse assessed as serum urea level at 2 g/kg by automatic biochemical analyser (reference value: 9.95 +/- 1.39 mmol); assay type: organism-based; conditions: in vivo, 2000 mg/kg
[2] = test system: Rattus norvegicus; experiment: Antihypertensive activity in spontaneously hypertensive rat model assessed as decrease in heart rate at 30 mg/kg, po administered daily for 14 days and measured after 2 days of drug withdrawal by tail-cuff plethysmography; assay type: functional, organism-based
[3] = test system: Mus musculus; experiment: Renal toxicity in Kunming mouse assessed as serum creatinin level at 2 g/kg by automatic biochemical analyser (reference value: 13.78 +/- 2.64 umol/L); assay type: organism-based; conditions: in vivo, 2000 mg/kg
[4] = Mutagenicity in Kunming mouse bone marrow cells assessed as ratio of polychromatic erythrocyte level to norchromatic erythrocyte level at 0.5 g/kg by May-Grunwald-Giemsa staining-based microscopic analysis (reference value: 1.32 +/- 0.22 ); assay type: toxicity, cell-based, Bone marrow cell; conditions: in vivo, 500 mg/kg
[5] = Mutagenicity in Kunming mouse bone marrow cells assessed as micronucleated polychromatic erythrocytes level at 0.5 g/kg by May-Grunwald-Giemsa staining-based microscopic analysis (reference value: 3.2 +/- 1.62 ); assay type: toxicity, cell-based, Bone marrow cell; conditions: in vivo, 500 mg/kg
[6] = test system: Rattus norvegicus; experiment: AUC in Sprague-Dawley rat at 3 mg/kg, iv by LC-MS/MS; assay type: ADME, organism-based; conditions: in vivo
[7] = test system: Mus musculus; experiment: Hepatotoxicity in Kunming mouse assessed as serum ALT level at 0.5 g/kg by automatic biochemical analyser (reference value: 44.33 +/- 6.50 U/T); assay type: toxicity, organism-based; conditions: in vivo, 500 mg/kg
[8] = Toxicity in Kunming mouse at 3 g/kg, po assessed as mortality after 2 weeks; assay type: organism-based; conditions: in vivo, 3000 mg/kg
[9] = Toxicity in Kunming mouse at 2 g/kg, po assessed as mortality after 2 weeks; assay type: organism-based; conditions: in vivo, 2000 mg/kg
[10] = Mutagenicity in Kunming mouse bone marrow cells assessed as ratio of polychromatic erythrocyte level to norchromatic erythrocyte level at 2 g/kg by May-Grunwald-Giemsa staining-based microscopic analysis (reference value: 1.32 +/- 0.22 ); assay type: toxicity, cell-based, Bone marrow cell; conditions: in vivo, 2000 mg/kg
[11] = test system: Rattus norvegicus; experiment: Antihypertensive activity in spontaneously hypertensive rat model assessed as decrease in systolic and diastolic blood pressure at 30 mg/kg, po administered daily for 14 days by tail-cuff plethysmography; assay type: functional, organism-based
[12] = Terminal half-life in Sprague-Dawley rat at 30 mg/kg, po by LC-MS/MS; assay type: ADME, organism-based; conditions: in vivo, read-out: beta t1/2 (converted)
[13] = test system: Rattus norvegicus; experiment: Antihypertensive activity in spontaneously hypertensive rat model assessed as decrease in heart rate at 30 mg/kg, po administered daily for 14 days by tail-cuff plethysmography; assay type: functional, organism-based
[14] = Toxicity in Kunming mouse at 5 g/kg, po assessed as mortality after 2 weeks; assay type: organism-based; conditions: in vivo, 5000 mg/kg
[15] = test system: Mus musculus; experiment: Renal toxicity in Kunming mouse assessed as serum urea level at 0.5 g/kg by automatic biochemical analyser (reference value: 9.95 +/- 1.39 mmol); assay type: organism-based; conditions: in vivo, 500 mg/kg
[16] = test system: Rattus norvegicus; experiment: Antihypertensive activity in po dosed spontaneously hypertensive rat assessed as decrease in mean blood pressure by tail-cuff plethysmography; assay type: functional, organism-based
[17] = Mutagenicity in Kunming mouse bone marrow cells assessed as ratio of polychromatic erythrocyte level to norchromatic erythrocyte level at 1 g/kg by May-Grunwald-Giemsa staining-based microscopic analysis (reference value: 1.32 +/- 0.22 ); assay type: toxicity, cell-based, Bone marrow cell; conditions: in vivo, 1000 mg/kg
[18] = test system: Mus musculus; experiment: Hepatotoxicity in Kunming mouse assessed as serum AST level at 2 g/kg by automatic biochemical analyser (reference value: 133.44 +/- […] U/T); assay type: toxicity, organism-based; conditions: in vivo, 2000 mg/kg
[19] = Toxicity in Kunming mouse at 4 g/kg, po assessed as mortality after 2 weeks; assay type: organism-based; conditions: in vivo, 4000 mg/kg
[20] = test system: Rattus norvegicus; experiment: Antihypertensive activity in spontaneously hypertensive rat model assessed as decrease in systolic and diastolic blood pressure at 30 mg/kg, po administered daily for 14 days and measured after 2 days of drug withdrawal by tail-cuff plethysmography; assay type: functional, organism-based
[21] = test system: Mus musculus; experiment: Hepatotoxicity in Kunming mouse assessed as serum AST level at 0.5 g/kg by automatic biochemical analyser (reference value: 133.44 +/- 25.05 U/T); assay type: toxicity, organism-based; conditions: in vivo, 500 mg/kg
[22] = test system: Mus musculus; experiment: Hepatotoxicity in Kunming mouse assessed as serum ALT level at 2 g/kg by automatic biochemical analyser (reference value: 44.33 +/- 6.50 U/T); assay type: toxicity, organism-based; conditions: in vivo, 2000 mg/kg
[23] = AUC in Sprague-Dawley rat at 30 mg/kg, po by LC-MS/MS; assay type: ADME, organism-based; conditions: in vivo
[24] = test system: Mus musculus; experiment: Renal toxicity in Kunming mouse assessed as serum creatinin level at 0.5 g/kg by automatic biochemical analyser (reference value: 13.78 +/- 2.64 umol/L); assay type: organism-based; conditions: in vivo, 500 mg/kg
[25] = Oral bioavailability in Sprague-Dawley rat at 30 mg/kg, by LC-MS/MS; assay type: ADME, organism-based; conditions: in vivo
[26] = Terminal half-life in Sprague-Dawley rat at 3 mg/kg, iv by LC-MS/MS; assay type: ADME, organism-based; conditions: in vivo, read-out: beta t1/2 (converted)
[27] = Volume of distribution at steady state in Sprague-Dawley rat at 3 mg/kg, iv by LC-MS/MS; assay type: ADME, organism-based; conditions: in vivo, read-out: Vdss
[28] = test system: Mus musculus; experiment: Renal toxicity in Kunming mouse assessed as serum urea level at 1 g/kg by automatic biochemical analyser (reference value: 9.95 +/- 1.39 mmol); assay type: organism-based; conditions: in vivo, 1000 mg/kg
[29] = test system: Mus musculus; experiment: Hepatotoxicity in Kunming mouse assessed as serum ALT level at 1 g/kg by automatic biochemical analyser (reference value: 44.33 +/- 6.50 U/T); assay type: toxicity, organism-based; conditions: in vivo, 1000 mg/kg
[30] = Cmax in Sprague-Dawley rat at 30 mg/kg, po by LC-MS/MS; assay type: ADME, organism-based; set-up: dose 30 mg/kg, route oral; conditions: in vivo
[31] = molecular target: T1, Type-1 angiotensin II receptor (Oryctolagus cuniculus, UniProt P34976); experiment: Antagonist activity against AT1 receptor in Japanese White rabbit aortic strips assessed as reduction in angiotension-2-induced contractile response after 60 mins by Schild's plot analysis; conditions: read-out: pA2 (converted)
T1 sequence (P34976 whole entry): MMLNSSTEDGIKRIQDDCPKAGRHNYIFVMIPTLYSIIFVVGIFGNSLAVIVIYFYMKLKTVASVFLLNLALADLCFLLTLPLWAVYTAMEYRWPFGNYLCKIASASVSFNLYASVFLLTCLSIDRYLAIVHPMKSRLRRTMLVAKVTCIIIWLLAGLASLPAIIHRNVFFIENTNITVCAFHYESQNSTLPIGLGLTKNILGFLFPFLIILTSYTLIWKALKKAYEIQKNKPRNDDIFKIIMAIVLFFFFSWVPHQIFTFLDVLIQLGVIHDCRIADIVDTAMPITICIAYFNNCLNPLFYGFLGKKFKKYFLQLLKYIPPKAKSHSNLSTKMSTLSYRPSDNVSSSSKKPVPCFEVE

[32] = molecular target: T2, Type-1 angiotensin II receptor (Homo sapiens, UniProt P30556); experiment: Displacement of [125I]Sar1Ile8-Ang2 from human AT1 receptor expressed in CHO-K1 cell membranes after 180 mins
T2 sequence (P30556 whole entry): T1 sequence (P34976 whole entry) with M2I, A49V, V254I, V270I, H272R, K311R, S349T, V353A

[33] = test system: Mus musculus; experiment: Renal toxicity in Kunming mouse assessed as serum creatinin level at 1 g/kg by automatic biochemical analyser (reference value: 13.78 +/- 2.64 umol/L); assay type: organism-based; conditions: in vivo, 1000 mg/kg
[34] = test system: Mus musculus; experiment: Hepatotoxicity in Kunming mouse assessed as serum AST level at 1 g/kg by automatic biochemical analyser (reference value: 133.44 +/- 25.05 U/T); assay type: toxicity, organism-based; conditions: in vivo, 1000 mg/kg
[35] = Toxicity in orally dosed Kunming mouse assessed as mortality after 2 weeks; assay type: organism-based; conditions: in vivo, po
[36] = Mutagenicity in Kunming mouse bone marrow cells assessed as micronucleated polychromatic erythrocytes level at 1 g/kg by May-Grunwald-Giemsa staining-based microscopic analysis (reference value: 3.2 +/- 1.62 ); assay type: toxicity, cell-based, Bone marrow cell; conditions: in vivo, 1000 mg/kg
[37] = Mutagenicity in Kunming mouse bone marrow cells assessed as micronucleated polychromatic erythrocytes level at 2 g/kg by May-Grunwald-Giemsan staining-based microscopic analysis (reference value: 3.2 +/- 1.62 ); assay type: toxicity, cell-based, Bone marrow cell; conditions: in vivo, 2000 mg/kg
[38] = Tmax in Sprague-Dawley rat at 30 mg/kg, po by LC-MS/MS; assay type: ADME, organism-based; conditions: in vivo

## CCCc1nc2c(C)cc(C(=O)NC[C@H](C)c3ccccc3)cc2n1Cc1ccc(-c2ccccc2-c2nnn[nH]2)cc1
[1]
  Activity: 11.2 mM
[2]
  Activity: Active
[3]
  Activity: 6.14 µmol/L
[4]
  Ratio: 1.34
[5]
  Activity: 3
[6]
  AUC: 12200 ng·h/mL
[7]
  Activity: 42.7 U/L
[8]
  mortality at 336 h: 30%
[9]
  mortality at 336 h: 0%
[10]
  Ratio: 1.64
[11]
  Activity: Active
[12]
  half-life: 13 h
[13]
  Activity: Active
[14]
  mortality at 336 h: 90%
[15]
  Activity: 8.71 mM
[16]
  Activity: Dose-dependent effect
[17]
  Ratio: 1.28
[18]
  Activity: 217 U/L
[19]
  mortality at 336 h: 50%
[20]
  Activity: Active
[21]
  Activity: 126 U/L
[22]
  Activity: 91.4 U/L
[23]
  AUC: 51500 ng·h/mL
[24]
  Activity: 10.3 µmol/L
[25]
  bioavailability: 42%
[26]
  half-life: 12.6 h
[27]
  Vd: 11 L/kg
[28]
  Activity: 10 mM
[29]
  Activity: 52.6 U/L
[30]
  Cmax: 14600 ng/mL
[31]
  Kb: 1.78 nM
[32]
  IC50: 1.1 nM
[33]
  Activity: 8.3 µmol/L
[34]
  Activity: 141 U/L
[35]
  LD50 at 336 h: 3640 mg/kg
[36]
  Activity: 3.8
[37]
  Activity: 4.3
[38]
  Tmax: 0.75 h
